Measurements reported in publication PMC12635268, “Novel antimicrobial peptides and peptide-microbiome crosstalk in Appalachian salamander skin” (NPJ Biofilms and Microbiomes, 2025).
Like-named read-outs stand apart in the source and are kept apart here. Ends that are not written are not given here.

What was measured:
[1] = system: P. aeruginosa PA01; assay: microbe, parasite or virus in culture; format: cell-based; conditions: P. aeruginosa 15692 (PAO1); Week 2 (12/14/2023)
Procedure: Antimicrobial susceptibility testing of the 20 synthesized peptides against 17 bacterial strains of clinical relevance in the ESKAPEE panel was conducted using minimum inhibitory concentration (MIC) assays following the broth microdilution method outlined by Parker et al.[91]. The ESKAPEE panel is comprised of fourteen American Type Culture Collection (ATCC) strains and three Multidrug Resistant Organism Repository and Surveillance Network (MRSN) bacterial strains. These strains represent at least one drug-susceptible strain and one drug-resistant strain for each bacterium to assess drug efficacy across various resistance mechanisms. This panel is comprised of the following bacterial species and strains: E. faecium (ATCC 19434, ATCC 49224), S. aureus (ATCC 25923, ATCC 43300), K. pneumoniae (ATCC 700603, ATCC 13883, MRSN 1320), A. baumannii (ATCC 17978, ATCC 19606, MRSN 959), P. aeruginosa (ATCC 15692, ATCC 27853, MRSN 5519), E. cloacae (ATCC 13047, ATCC 35549), and E. coli (ATCC 35218, ATCC 43888). Bacteria were grown in cation-adjusted Mueller-Hinton broth (CAMHB) to achieve a final inoculum of 1 × 10⁵ CFU/mL. CAMHB is selected for its batch-to-batch reproducibility, low levels of antimicrobial inhibitors, and ability to support the growth of most bacterial pathogens.
Briefly, lyophilized peptides were dissolved in 0.2% TFA + 0.4% BSA in water to 2.56 mg/mL, ultrasonicated for 20 min, diluted 10-fold into CAMHB, and then serially diluted 2-fold in 0.02% TFA + 0.04% BSA in CAMHB and assayed at a concentration of 0.25 to 128 μg/mL. Assays were set up using the Tecan Freedom EVO liquid handling robot and software (Tecan, Switzerland) with 50 μL of bacterial inoculum and 50 μL of peptide transferred into round-bottom 96-well microtiter plates. Each plate assay was performed in duplicate and incubated at 37 °C for 20 h without agitation. Bacterial growth was assessed using the BIOMIC V3 Image Analysis system (Giles Scientific, USA) and the MIC values were determined visually according to the Clinical and Laboratory Standards Institute (CLSI) guidelines.

[2] = system: E. coli ATCC 43888; assay: microbe, parasite or virus in culture
Outline: (§1)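 Each strain was exposed in duplicate to two-fold peptide dilutions (0.25 to 128 μg/mL) in cation-adjusted Mueller-Hinton broth at 1 × 10⁵ CFU/mL. After 20 h at 37 °C without shaking, the lowest concentration lacking visible growth was recorded following CLSI.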

[3] = system: E. cloacae ATCC 13047; assay: microbe, parasite or virus in culture
Outline: as §1

[4] = system: E. coli ATCC 35218; assay: microbe, parasite or virus in culture; conditions: E. coli 35218; Week 2 (12/14/2023)
Outline: as §1

[5] = system: P. aeruginosa MRSN 5519; assay: microbe, parasite or virus in culture
Outline: as §1

[6] = system: P. aeruginosa ATCC 27853; assay: microbe, parasite or virus in culture
Outline: as §1

[7] = system: K. pneumoniae ATCC 13883; assay: microbe, parasite or virus in culture
Outline: as §1

[8] = system: E. faecium ATCC 19434; assay: microbe, parasite or virus in culture
Outline: as §1

[9] = system: A. baumannii ATCC 17978; assay: microbe, parasite or virus in culture
Outline: as §1

[10] = system: E. faecium ATCC 49224; assay: microbe, parasite or virus in culture
Outline: as §1

[11] = system: K. pneumoniae ATCC 700603; assay: microbe, parasite or virus in culture; conditions: K. pneumoniae 700603; Week 2 (12/14/2023)
Outline: as §1

[12] = system: E. cloacae ATCC 35549; assay: microbe, parasite or virus in culture
Outline: as §1

[13] = system: S. aureus ATCC 25923; assay: microbe, parasite or virus in culture
Outline: as §1

[14] = system: A. baumannii ATCC 19606; assay: microbe, parasite or virus in culture
Outline: as §1

[15] = system: S. aureus ATCC 43300; assay: microbe, parasite or virus in culture; conditions: S. aureus 43300; Week 2 (12/14/2023)
Outline: as §1

[16] = system: P. aeruginosa PA01 (Si); assay: microbe, parasite or virus in culture; format: cell-based
From the text: Supplement 41522_2025_837_MOESM13_ESM.xlsx, sheet "Table_S13_ESKAPEE-MIC" | column: Bacterial MIC (µg/mL)

[17] = design: method as in Biomatik (vendor); conditions: 1.0 mg peptide in 1.0 ml solvent; peptides synthesized by Biomatik; ref Biomatik (vendor); cited from earlier work
[18] = system: Batrachochytrium dendrobatidis Bd-GPL strain JEL404; conditions: for Bd inhibition score (percent inhibition), mean: slope of growth, positive = inhibition, negative = no inhibition
Procedure: Bd-peptide challenge assays were conducted with the crude peptides extracted from the salamander skin secretions and with the 20 synthesized peptides. We followed methods by Pereria et al.[49] to conduct assays with the crude peptides using Bd-GPL strain JEL404 at 1 × 10^6 zoospores/mL. Briefly, skin peptide samples were pooled together based on species-site-injection (Table 1). Skin peptides samples were serially diluted 2-fold in MilliQ (Ultrapure Type 1) water and assayed at a concentration of 2.35–75 μg/mL based on starting peptide concentration available. For synthesized peptides, we conducted assays from 15.6 to 500 μg/ml. In both assays, we quantified percent inhibition of each well using slope of growth[90] in which positive values indicate inhibition and negative values indicate no inhibition.

[19] = system: K. pneumoniae 4640
[20] = system: A. baumannii 5075; conditions: Week 2 (12/14/2023)
[21] = E. coli 43888, Week 2 (12/14/2023)
[22] = E. cloacae 13047, Week 2 (12/14/2023)
[23] = P. aeruginosa 5519, Week 2 (12/14/2023)
[24] = P. aeruginosa 27853, Week 2 (12/14/2023)
[25] = K. pneumoniae 13883, Week 2 (12/14/2023)
[26] = E. faecium 19434, Week 2 (12/14/2023)
[27] = A. baumannii 17978, Week 2 (12/14/2023)
[28] = E. faecium 49224, Week 2 (12/14/2023)
[29] = E. cloacae 35549, Week 2 (12/14/2023)
[30] = S. aureus 25923, Week 2 (12/14/2023)
[31] = A. baumannii 19606, Week 2 (12/14/2023)
[32] = P. aeruginosa PA01 (Si), not typical ESKAPEE strain, Week 2 (12/14/2023)
[33] = synthesized peptide 15.625 μg/mL
[34] = synthesized peptide 31.25 μg/mL
[35] = K. pneumoniae 4640, Week 2 (12/14/2023)

Sequence | Bacterial MIC [1] [µg/mL] | Bacterial MIC [2, 21] [µg/mL] | Bacterial MIC [4] [µg/mL] | Bacterial MIC [11] [µg/mL] | Bacterial MIC [15] [µg/mL] | Suggest solvent (solubility) [17] | Bacterial MIC [20] [µg/mL] | Bacterial MIC ([2]; ATCC 43888, 20 h) [µg/mL] | Bacterial MIC ([3]; ATCC 13047, 20 h) [µg/mL] | Bacterial MIC ([5]; MRSN 5519, 20 h) [µg/mL] | Bacterial MIC ([6]; ATCC 27853, 20 h) [µg/mL] | Bacterial MIC ([7]; ATCC 13883, 20 h) [µg/mL] | Bacterial MIC ([8]; ATCC 19434, 20 h) [µg/mL] | Bacterial MIC ([9]; ATCC 17978, 20 h) [µg/mL] | Bacterial MIC ([10]; ATCC 49224, 20 h) [µg/mL] | Bacterial MIC ([12]; ATCC 35549, 20 h) [µg/mL] | Bacterial MIC ([13]; ATCC 25923, 20 h) [µg/mL] | Bacterial MIC ([14]; ATCC 19606, 20 h) [µg/mL] | Bacterial MIC ([16]; Si) [µg/mL] | Bacterial MIC ([19]; 4640, 20 h) [µg/mL] | further results
EPVPPGFTPFR [PrAd-Eb13] | >128.000 | >128.000 | >128.000 | >128.000 | >128.000 | 1.0mg peptide soluble in 1.0ml H2O | >128.000 |  |  |  |  |  |  |  |  |  |  |  |  |  | Bacterial MIC [3, 22]: >128.000 µg/mL; Bacterial MIC [5, 23]: >128.000 µg/mL; Bacterial MIC [6, 24]: >128.000 µg/mL; Bacterial MIC [7, 25]: >128.000 µg/mL; Bacterial MIC [8, 26]: >128.000 µg/mL; Bacterial MIC [9, 27]: >128.000 µg/mL; Bacterial MIC [10, 28]: >128.000 µg/mL; Bacterial MIC [12, 29]: >128.000 µg/mL; Bacterial MIC [13, 30]: >128.000 µg/mL; Bacterial MIC [14, 31]: >128.000 µg/mL; Bacterial MIC [16, 32]: >128.000 µg/mL; Bd inhibition score (percent inhibition), mean [18, 33]: -15.8993%; Bd inhibition score (percent inhibition), mean [18, 34]: -14.7717%; Bd inhibition score (percent inhibition), mean ([18]; synthesized peptide 62.5 μg/mL): -15.0589%; Bd inhibition score (percent inhibition), mean ([18]; synthesized peptide 125 μg/mL): -17.1018%; Bd inhibition score (percent inhibition), mean ([18]; synthesized peptide 250 μg/mL): -17.5569%; Bd inhibition score (percent inhibition), mean ([18]; synthesized peptide 500 μg/mL): -12.696%; Bacterial MIC [19, 35]: >128.000 µg/mL
FPRPPGFTPFR [PrAd-Eb12] | >128.000 | >128.000 | >128.000 | >128.000 | >128.000 | 1.0mg peptide soluble in 1.0ml H2O | >128.000 |  |  |  |  |  |  |  |  |  |  |  |  |  | Bacterial MIC [3, 22]: >128.000 µg/mL; Bacterial MIC [5, 23]: >128.000 µg/mL; Bacterial MIC [6, 24]: >128.000 µg/mL; Bacterial MIC [7, 25]: >128.000 µg/mL; Bacterial MIC [8, 26]: >128.000 µg/mL; Bacterial MIC [9, 27]: >128.000 µg/mL; Bacterial MIC [10, 28]: >128.000 µg/mL; Bacterial MIC [12, 29]: >128.000 µg/mL; Bacterial MIC [13, 30]: >128.000 µg/mL; Bacterial MIC [14, 31]: >128.000 µg/mL; Bacterial MIC [16, 32]: >128.000 µg/mL; Bd inhibition score (percent inhibition), mean [18, 33]: -2.358%; Bd inhibition score (percent inhibition), mean [18, 34]: 4.727%; Bd inhibition score (percent inhibition), mean ([18]; synthesized peptide 62.5 μg/mL): 5.096%; Bd inhibition score (percent inhibition), mean ([18]; synthesized peptide 125 μg/mL): 3.64%; Bd inhibition score (percent inhibition), mean ([18]; synthesized peptide 250 μg/mL): 0.8166%; Bd inhibition score (percent inhibition), mean ([18]; synthesized peptide 500 μg/mL): 9.489%; mild Bd inhibition, average across concentrations ([18]; synthesized peptide, concentrations down to 31.25 μg/mL): 1–9.5%; Bacterial MIC [19, 35]: >128.000 µg/mL
KRAGYARMIR [PrAd-Eb18] | >128.000 |  | >128.000 | >128.000 | >128.000 | 1.0mg peptide soluble in 1.0ml H2O | >128.000 | >128.000 | >128.000 | >128.000 | >128.000 | >128.000 | >128.000 | >128.000 | >128.000 | >128.000 | >128.000 | >128.000 | >128.000 | >128.000 | 
NANGASNANGASYANGASN [TrPr-Pc34] | >128.000 |  | >128.000 | >128.000 | >128.000 | 1.0mg peptide soluble in 1.0ml H2O | >128.000 | >128.000 | >128.000 | >128.000 | >128.000 | >128.000 | >128.000 | >128.000 | >128.000 | >128.000 | >128.000 | >128.000 | >128.000 | >128.000 | 
RVPPGFSPFR [PrAd-Eb28] | >128.000 |  | >128.000 | >128.000 | >128.000 | 1.0mg peptide soluble in 1.0ml H2O | >128.000 | >128.000 | >128.000 | >128.000 | >128.000 | >128.000 | >128.000 | >128.000 | >128.000 | >128.000 | >128.000 | >128.000 | >128.000 | >128.000 | 
